Consider 87 compounds from PubChem BioAssay AID2305 (GlaxoSmithKline (GSK), 2010).

This test concerns P. falciparum 3D7 growth, pLDH absorbance. Briefly: P. falciparum 3D7 growth inhibition, dose response, strain 3D7 (AID 2305).

The term IC50 denotes the midpoint of a concentration-inhibition curve.

Consider `O=C(C=Cc1ccc(F)cc1)N1CCN(S(=O)(=O)c2ccc(Cl)cc2)CC1`, for which the IC50 worked out at 630 nM. In turn, `CCOc1cc(Br)c(C(C)NC(=O)c2cccc(OC)c2)cc1OCC` (configuration not stated) registered an IC50 of 170 nM. `CCN(CC)C(=NCCCCCCN=C(/N=C(/N)Nc1ccc(Br)cc1)N(CC)CC)/N=C(/N)Nc1ccc(Br)cc1` returned an IC50 of 380 nM. The figure for `Cc1ccnc(NC(c2cccc(OCc3ccccc3)c2)c2ccc3cccnc3c2O)c1` (configuration not stated) is 860 nM. Take `NCC1CCCN1Cc1ccc(-c2ccc(-c3nc4ccc(C(F)(F)F)cc4[nH]3)s2)cc1` (configuration not stated): the IC50 is 790 nM. In the case of `CN1CCN(CC(=O)Nc2ccc(-c3ccc(-c4nc5ccc(C(F)(F)F)cc5[nH]4)s3)cc2)CC1` it was 570 nM.

In turn, `Oc1ccc(CN2CCC(NCc3cccc(C(F)(F)F)c3)CC2)cc1` displayed an IC50 of 680 nM. As for `COc1cc(C(=O)NC2CCN(Cc3ccccc3)CC2)ccc1-c1cc2cc(Cl)c(Cl)cc2[nH]1`, the IC50 is 230 nM. As to `O=C(/C=C/c1ccccc1)N1CCOC(CCN2CCC(c3ccccc3)CC2)(c2ccc(Cl)c(Cl)c2)C1` (configuration not stated), the IC50 came out at 520 nM. Compound `Cc1ccc(C)c(NC(=O)CC2C(=O)N(c3ccccc3)C(=S)N2Cc2ccco2)c1` (configuration not stated) showed an IC50 of 570 nM. This IC50 and that of the compound before are within 1.5-fold of each other. The figure for `COc1ccc(CNc2ccnc(-n3cnc4cc(C)c(C)cc43)n2)cc1Cl` is 270 nM; for `Cc1cc(NN=CC=Cc2ccccc2)c2cc(F)ccc2n1` it is 730 nM; for `CC1CN(Cc2cccc(-c3ccc(-c4nc5ccccc5[nH]4)cc3)c2)CC(C)O1` (configuration not stated) it is 860 nM. `CC(=O)Nc1nc(C(=O)Nc2cccc(-c3cccc(-c4nc5ccccc5[nH]4)c3)c2)cs1` had an IC50 of 170 nM. In the case of `Nc1ccc2[nH]cc(C3CCN(CCC4CCN(C(=O)/C=C/c5ccc(Cl)c(Cl)c5)CC4)CC3)c2n1` it was 740 nM; in that of `O=C(Cn1c(CCc2cccc(F)c2F)cc(=O)c2ccccc21)N(Cc1ccc(-c2ccc(C(F)(F)F)cc2)cc1)C1CCN(CCO)CC1`, 1320 nM. `O=C(NCC1CCN(Cc2cccc(C(F)(F)F)c2)C1)c1cc(-c2cccc(C(F)(F)F)c2)cs1` (configuration not stated) had an IC50 of 610 nM. For `CC(C)(C)c1cc(C(=O)N2CCC(c3ccccn3)CC2)n(Cc2ccccc2)n1`, the IC50 was determined as 960 nM. This IC50 is about 1.6-fold higher than that of the compound before.

The compound `Cc1[nH]c2ccc(O)cc2c1C1CCN(CC2CCN(C(=O)/C=C/c3ccc(Cl)c(Cl)c3)CC2)CC1` showed an IC50 of 1000 nM.

On to `COc1ccc2ncc(F)c(CCN3C[C@H](CNCc4ccc(F)cc4)[C@H](O)C3)c2n1`, for which the IC50 was 820 nM.

Consider `CCC1CN2CCc3c([nH]c4ccc(OC)cc34)[C@@H]2C[C@@H]1CC1NCCc2cc(OC)c(OC)cc21` (some centres not stated), for which the IC50 came out at 860 nM. In the case of `COc1cc(CC(C)NCC(O)c2cccc(C(F)(F)F)c2)ccc1OCc1ccccc1` (configuration not stated) it was 820 nM. In the case of `CC[C@H](N=C(Nc1ccc(-c2ccccc2)cc1)Nc1ccc(C#N)cc1O)c1ccccc1` it was 760 nM. In the case of `CN(C)CCOC(=O)C1(O)CCC2CC1C2(C)C` (configuration not stated) it was 980 nM. The compound `CCN(CC)c1ccccc1CNC(=O)c1cc(Cl)c(N)cc1OC` gave an IC50 of 210 nM.

As to `COc1cccc2c1CCN(CCN1CCC(CNC(=O)c3ccc(-c4ccc(C#N)cc4)cc3)CC1)C2`, the IC50 was 760 nM. The figure for `COc1ccc2nccc([C@@H](O)CN3CCC(NC(=O)/C=C/c4cccc(NC(C)=O)c4)CC3)c2c1` is 960 nM. Consider `Cc1cc(N)c2cc(NC(=O)/C=C/c3ccc([N+](=O)[O-])cc3)ccc2n1`, for which the IC50 was 670 nM. The figure for `S=C(Nc1cccc(Cl)c1)NC1CCN(c2ccnc3cc(Cl)ccc23)C1` (configuration not stated) is 150 nM; for `COc1ccc2nc(C)cc(NN=Cc3ccc([N+](=O)[O-])cc3)c2c1` it is 690 nM; for `O=C(C=Cc1ccc([N+](=O)[O-])cc1)N1CCC(CCN2CCC(c3c[nH]c4ccccc34)CC2)CC1` it is 740 nM. In the case of `Cc1[nH]c(C)c(-c2ccc(-c3ccc(F)cc3)cc2)c(=O)c1Br` it was 1070 nM; in that of `O=C(CC1CCCCC1)NCC(NCCCNc1cc(=O)c2ccccc2[nH]1)c1cc(Br)cc(Br)c1` (configuration not stated), 1050 nM. `Cc1cc(Nc2ncc(C#N)c(Nc3ccccc3C(N)=O)n2)ccc1N1CCN(C)CC1` displayed an IC50 of 10 nM. In the case of `COc1ccccc1-c1csc(C(=O)NC2CCCCN(Cc3ccc(C(C)(C)C)cc3)C2)c1` (configuration not stated) it was 1530 nM; in that of `COc1ccc2nccc([C@@H](O)CN3CCC(NCC(=O)Nc4cc(F)cc(F)c4)CC3)c2n1`, 910 nM.

`CCc1cc(=O)[nH]c(-n2nc(C)cc2NC(=O)CC(c2ccccc2)c2ccccc2)n1`: the IC50 is 960 nM. The figure for `CCC(Cc1ccccc1)c1cc(O)c(Cc2ccc(-c3ccccc3)cc2)c(=O)o1` (configuration not stated) is 970 nM. The figure for `Cc1nnsc1C(=O)Nc1ccc(-c2ccc(-c3nc4ccccc4[nH]3)s2)cc1` is 820 nM; for `CC(=O)Nc1ccc(COc2ccc(Nc3ccnc4cc(-c5ccccn5)ccc34)cc2)cc1` it is 200 nM. The figure for `Cc1nn(-c2ccccc2)c2nc(-c3ccccc3)cc(C(=O)N3CCOCC3)c12` is 870 nM; for `CCNc1cc(C(=O)N[C@@H](Cc2ccccc2)[C@H](O)CN[C@H]2CCc3ccccc32)cc(N2CCCC2=O)c1` it is 290 nM. In turn, `Cc1cc(-c2nc3cncc(-c4cccc(CN5CCCC5Cc5cccnc5)c4)c3n2C)nn1C` (configuration not stated) came in with a concentration for half-maximal inhibition (IC50) of 130 nM. In turn, `COc1ccc(CCNc2ccnc3cc(Cl)ccc23)cc1OC` came in with an IC50 of 890 nM. On to `COc1ccc(CNC2CCN(C)CC2)cc1-c1ccc(S(=O)(=O)NC2CCC2)s1`, for which the IC50 came to 730 nM.

In turn, `CC(C)CNCc1ccc(-c2cccc(CNC3CCN(Cc4ccccc4)CC3)c2)cc1` gave an IC50 of 240 nM. In the case of `CN(C)CCOc1ccc(-c2cc(-c3ccncc3)c(-c3ccc(Cl)c(O)c3)[nH]2)cc1` it was 220 nM; in that of `CN1CCC(Oc2ccc(NC(=O)c3ccc4c(=O)n(Cc5ccccc5)cnc4c3)cc2Cl)CC1`, 950 nM.

`CCOc1ccccc1CCNC(C)Cc1ccc(C(=O)Nc2ccc(CC(C)NCCc3cccc(Cl)c3)cc2)cc1` (configuration not stated) had an IC50 of 540 nM. In the case of `O=C(/C=C/c1ccccc1O)NCCCCCN1CCC(c2c[nH]c3ccccc23)CC1` it was 830 nM; in that of `COc1cc(CNC(=S)NN=C(C)c2ccccn2)cc(OC)c1OC`, 400 nM; in that of `Cc1cc(N[C@@H](Cc2ccccc2)C(=O)Nc2ccccc2)nc(NCCc2cccs2)n1`, 800 nM.

On to `CC(CN(C)C)C(=O)Nc1ccc(-c2ccc(-c3nc4ccccc4[nH]3)cc2)cc1` (configuration not stated), for which the IC50 turned out to be 740 nM. As for `CCCc1cc(Cc2cnc(N)nc2N)cc(CCC)c1OCCCC(=O)OCC`, the IC50 turned out to be 50 nM.

Take `CCNc1cc(C)nc(Nc2ccc(NC(=O)c3ccccc3)cc2)n1`: the IC50 amounted to 1020 nM. `COc1cc(-c2cc3cc(Cl)c(Cl)cc3[nH]2)ccc1C(=O)NC1CCN(Cc2ccccc2)CC1` yielded an IC50 of 530 nM. In the case of `CCCCOP(=O)(OCCCC)C(=Cc1ccc(O)c2ccccc12)P(=O)(OCCCC)OCCCC` it was 1070 nM; in that of `CCN(CCCN1CCCCC1)c1cc(C)nc(Nc2ccc(Cl)cc2)n1`, 380 nM; in that of `CN1CCN(CCCN(Cc2cccc(-c3ccc(CNCc4ccc5c(c4)OCO5)cc3)c2)C(=O)CCC2CCCC2)CC1`, 1000 nM. In the case of `O=S(=O)(NC1CCN(c2ccnc3cc(Cl)ccc23)C1)c1cccc(F)c1` (configuration not stated), the IC50 stood at 490 nM. Against the preceding compound, the IC50 is about 2-fold lower. Take `OCC1CCN(Cc2cccc(-c3ccc(-c4nc5ccc(C(F)(F)F)cc5[nH]4)s3)c2)CC1`: the IC50 worked out at 590 nM. As to `C=Cc1ccc(-c2c(C)[nH]c(C)c(Br)c2=O)cc1`, the IC50 was 560 nM. The figure for `Cc1cc(Nc2ccncc2)n2nc(C)c(-c3ccc(Cl)cc3)c2n1` is 160 nM; for `CN(/N=C/c1ccc(Cl)cc1)c1nc(NCCc2ccc(O)cc2)nc(N2CCNCC2)n1` it is 1350 nM; for `Cc1ccc(CN2CCCN(Cc3ccc(C(=O)Nc4ccc(Cl)cc4)cc3)CC2)s1` it is 1110 nM.

`COc1cccc(CC(=O)NC2CCN(c3ccnc4cc(Cl)ccc34)C2)c1` (configuration not stated): the IC50 came out at 700 nM. The compound `N#Cc1ccc(NC2(C(=O)N3CCN(c4cccc(Cl)c4)CC3)CC2)c2ccccc12` showed an IC50 of 1150 nM. The figure for `Nc1cnc(C#Cc2cc3ncnc(N(CCN4CCOCC4)c4ccc(OCc5cccc(F)c5)c(Cl)c4)c3s2)cn1` is 1050 nM; for `N#Cc1ccccc1Sc1ccccc1C(=O)Nc1ccc2ccccc2n1` it is 510 nM. In the case of `CCCCC1=CC2C(=O)C(C(=O)OC)=CN=C2C=C1OCc1ccccc1` (configuration not stated) it was 40 nM. In turn, `Cc1ccc(N2C(N)=NC(N)=NC2c2ccccc2)cc1` (configuration not stated) came in with a concentration for half-maximal inhibition (IC50) of 60 nM.

For the compound `COc1cc2ccccc2c(CNCCCCCCNCc2c(OC)c(OC)cc3ccccc23)c1OC`, the IC50 amounted to 1110 nM. Against the preceding compound, the IC50 is about 18-fold higher. The compound `Cc1cccc2[nH]c(-c3ccc(-c4cccc(NC(=O)CN5CCN(C)CC5)c4)s3)nc12` showed an IC50 of 830 nM.

Compound `O=C(NCc1ccc(Cl)cc1)c1ccc(C(=O)NCC2CCCN2CC2CCCCC2)cc1` (configuration not stated) displayed an IC50 of 850 nM. `CCN(CC)CCNc1ccnc2[nH]c3ccc(C)cc3c12` yielded an IC50 of 670 nM. In turn, `CCCCOc1cc(OC)c2ccccc2c1CCNCCCCNCCc1c(OCCCC)cc(OC)c2ccccc12` came in with an IC50 of 1050 nM. In the case of `OC(CNc1ccnc(Nc2ccccc2)n1)c1ccc(C(F)(F)F)cc1` (configuration not stated) it was 610 nM. Consider `CCCCCC(C)(C)NC[C@@H](O)[C@H](Cc1ccccc1)NC(=O)c1cc(NCC)cc(N2CCCC2=O)c1`, for which the IC50 was found to be 670 nM. The IC50 values of the last two compounds are within 1.5-fold of each other. In the case of `c1ccc2c(c1)CN(Cc1ccsc1)CC1(CCN(Cc3c[nH]c4cnccc34)CC1)O2` it was 1150 nM. In the case of `COc1ccccc1CCN(C)CCN1CCC(NC(=O)c2ccc(-c3ccc(C(F)(F)F)cc3)cc2)CC1` it was 1030 nM. For `c1ccc2oc(-c3cc4ccncc4cc3OC3CCNCC3)cc2c1`, the half-maximal inhibitory concentration (IC50) was determined as 1470 nM. Compound `Cc1noc(-c2ccc(NC[C@@H](C)NC[C@H](O)c3cccc(Cl)c3)cc2)n1` showed an IC50 of 760 nM. In the case of `CCn1c(-c2nonc2N)nc2c(-c3ccccc3)ncc(OCCCCNCCc3ncc[nH]3)c21` it was 850 nM; in that of `Cc1cc(N(C)C2CCN(CC3CCCCC3)C2)nc(Nc2ccc(Br)cc2)n1` (configuration not stated), 700 nM. In turn, `CCC(Nc1noc(-c2c(-c3ccccc3)noc2C)n1)c1ccccc1` (configuration not stated) came in with an IC50 of 970 nM. In turn, `O=C(NC1CCCC1)c1ccc(N2CCC(NCc3cc4cc(Cl)ccc4[nH]3)CC2)cc1` returned an IC50 of 1220 nM. With `O=C(NC1CCC(CN2CCC(c3c[nH]c4ccccc34)CC2)CC1)C1(O)c2ccccc2-c2ccccc21` (configuration not stated), the IC50 came to 1190 nM.
